The text below walks through data of US12473277B2, “Solid forms of a modulator of hemoglobin” (GLOBAL BLOOD THERAPEUTICS, INC., priority 2021, dated 2025).

A short description of data set [1]: Dynamic vapor sorption/desorption (DVS) isotherm. The class given is physicochemical. The note with it: for hygroscopicity indicated by DVS isotherm: 5% to 95% RH, 10% RH increments, nitrogen purge; for weight gain and loss through the sorption/desorption cycle / weight gain through the sorption cycle / weight loss upon desorption: DVS; for weight gain and loss through the sorption/desorption cycle / weight gain through the sorption cycle: 5 to 95% RH; for material recovered from the DVS experiment, by XRPD: after DVS sorption/desorption cycle; for weight loss upon desorption: 95 to 5% RH. The method, then: Automated vapor sorption (VS) data were collected on a Surface Measurement System DVS Intrinsic instrument or a VTI SGA-100 instrument. Samples were not dried prior to analysis. Sorption and desorption data were collected over a range from 5% to 95% relative humidity (RH) at 10% RH increments under a nitrogen purge. The equilibrium criterion used for analysis was less than 0.0100% weight change in 5 minutes with a maximum equilibration time of 3 hours. Data were not corrected for the initial moisture content of the samples.

The nature of data set [2]: Physical stability of solid forms under humidity, temperature or vacuum stress (XRPD/observation). Type of data set: physicochemical. The procedure:
XRPD figures were generated using SSCI Pattern Match 3.0.4, unvalidated software. XRPD patterns were collected with a PANalytical X'Pert PRO MPD or a PANalytical Empyrean diffractometer using an incident beam of Cu radiation produced using an Optix long, fine-focus source. An elliptically graded multilayer mirror was used to focus Cu Kα X-rays through the specimen and onto the detector. Prior to the analysis, a silicon specimen (NIST SRM 640e or NIST SRM 6400 was analyzed to verify the observed position of the Si 111 peak is consistent with the NIST-certified position. A specimen of the sample was sandwiched between 3-μm-thick films and analyzed in transmission geometry. A beam-stop, short antiscatter extension, and antiscatter knife edge were used to minimize the background generated by air. Soller slits for the incident and diffracted beams were used to minimize broadening and asymmetry from axial divergence. Diffraction patterns were collected using a scanning position-sensitive detector (X'Celerator) located 240 mm from the specimen and Data Collector software v. 2.2b or v. 5.5.

The nature of data set [3]: Binary interconversion slurry experiments between Compound I Form I and Compound I Material II. The class given is physicochemical. To be noted: room temperature slurries. The source says:
Binary interconversion slurry experiments between Compound I Form I and Compound I Material II in different solvent systems at room temperature are summarized in Table 2. Saturated solutions were generated and then added to mixtures composed of approximately equivalent quantities of the two polymorphs. The samples were slurried for several days and the solids harvested and analyzed by XRPD.

Another data set in a line: physchem. To be noted: water.

Where a name gives a salt, the structure may show the parent alone.

Consider `O=Cc1c(O)cccc1OC[C@@H]1COCCN1C(=O)c1cccnc1CCO` [Compound I Material II, (S)-2-hydroxy-6-((4-(2-(2-hydroxyethyl)nicotinoyl)morpholin-3-yl)methoxy)benzaldehyde], for which, in data set [1], the “hygroscopicity indicated by DVS isotherm” value is given as “significant hygroscopicity above 85% RH”; the “weight gain and loss through the sorption/desorption cycle” value is reported as “approximately 3.4%”; the “material recovered from the DVS experiment, by XRPD” value (from here on “material recovered”) was “identified as Compound I Material II”.

Take `CCS(=O)(=O)O.O=Cc1c(O)cccc1OC[C@@H]1COCCN1C(=O)c1cccnc1CCO` [Compound I Esylate Form B, (S)-2-hydroxy-6-((4-(2-(2-hydroxyethyl)nicotinoyl)morpholin-3-yl)methoxy)benzaldehyde esylate]: the “physical stability under high humidity” value in data set [2] (90% relative humidity, ambient temperature) is given as “deliquesced”.

`O=Cc1c(O)cccc1OC[C@@H]1COCCN1C(=O)c1cccnc1CCO.O=S(=O)(O)c1cccc2c(S(=O)(=O)O)cccc12` [Compound I Napadisylate Form A, (S)-2-hydroxy-6-((4-(2-(2-hydroxyethyl)nicotinoyl)morpholin-3-yl)methoxy)benzaldehyde napadisylate]: the “physical stability under vacuum (XRPD)” value in data set [2] (43° C. under vacuum, within 4 days) is recorded as “not physically stable”.

As for `O=Cc1c(O)cccc1OC[C@@H]1COCCN1C(=O)c1cccnc1CCO` [Compound I Form I, (S)-2-hydroxy-6-((4-(2-(2-hydroxyethyl)nicotinoyl)morpholin-3-yl)methoxy)benzaldehyde], in data set [1], the “hygroscopicity indicated by DVS isotherm” value was “low hygroscopicity”; the “weight gain and loss through the sorption/desorption cycle” value came out at 0.7%; the “material recovered” value was “identified as Compound I Form I”. Moreover, the “relative thermodynamic stability from interconversion studies” value in data set [3] is reported as “most thermodynamically stable form relative to Material II”.

For the compound `O=C(O)C(=O)O.O=Cc1c(O)cccc1OC[C@@H]1COCCN1C(=O)c1cccnc1CCO` [Compound I Oxalate Form B, (S)-2-hydroxy-6-((4-(2-(2-hydroxyethyl)nicotinoyl)morpholin-3-yl)methoxy)benzaldehyde oxalate], in data set [2] (90% RH, ambient temperature, 11 days), the “physical stability under high humidity (XRPD)” value was “still predominately Compound I Oxalate Form B”. This compound also displayed a solubility in the data set “physchem” above 134 mg/mL.

Consider “(S)-2-hydroxy-6-((4-(2-(2-hydroxyethyl)nicotinoyl)morpholin-3-yl)methoxy)benzaldehyde edisylate [Compound I Edisylate Material B]”, for which the “physical stability under vacuum (XRPD)” value in data set [2] (44° C. under vacuum) is given as “additional unidentified peaks”.

With `O=Cc1c(O)cccc1OC[C@@H]1COCCN1C(=O)c1cccnc1CCO.O=S(=O)(O)O` [Compound I Sulfate Form A, (S)-2-hydroxy-6-((4-(2-(2-hydroxyethyl)nicotinoyl)morpholin-3-yl)methoxy)benzaldehyde sulfate], in data set [2] (43° C. under vacuum for 2 days), the “physical stability under vacuum (XRPD)” value is on record as “physically stable”. Further, in data set [2] (90% RH, ambient temperature, within 1 day), the “physical stability under high humidity” value is listed as “deliquesces”. The compound also yielded a solubility in the data set “physchem” above 87 mg/mL.

As to `CCS(=O)(=O)O.O=Cc1c(O)cccc1OC[C@@H]1COCCN1C(=O)c1cccnc1CCO` [Compound I Esylate Form A, (S)-2-hydroxy-6-((4-(2-(2-hydroxyethyl)nicotinoyl)morpholin-3-yl)methoxy)benzaldehyde esylate], the “physical stability under vacuum (XRPD)” value in data set [2] (44° C. under vacuum) was “not physically stable”.

On to `O=Cc1c(O)cccc1OC[C@@H]1COCCN1C(=O)c1cccnc1CCO` [Compound I HCl Form A], for which, in data set [1], the “hygroscopicity indicated by DVS isotherm” value is given as “significant hygroscopicity”; the “weight gain through the sorption cycle” value came to 3%; the “weight loss upon desorption” value amounted to 3.3%; the “material recovered” value was “remained Compound I HCl Form A”. Also, the “physical stability, XRPD pattern after stress” value in data set [2] (40° C./75% RH for 27 days) is listed as “no changes were observed in the XRPD pattern”.

Regarding “(S)-2-hydroxy-6-((4-(2-(2-hydroxyethyl)nicotinoyl)morpholin-3-yl)methoxy)benzaldehyde edisylate [Compound I Edisylate Form A]”, in data set [2] (ambient conditions, relative humidity approximately 57%), the “physical stability upon exposure to ambient conditions” value is “very hygroscopic and not stable under ambient conditions”. Further, the “physical stability on drying in vacuum oven (XRPD)” value in data set [2] (damp sample, 43° C. vacuum oven) is on record as “physical instability”.

For `O=Cc1c(O)cccc1OC[C@@H]1COCCN1C(=O)c1cccnc1CCO` [amorphous Compound I, (S)-2-hydroxy-6-((4-(2-(2-hydroxyethyl)nicotinoyl)morpholin-3-yl)methoxy)benzaldehyde], in data set [1], the “hygroscopicity indicated by DVS isotherm” value is on record as “significant hygroscopicity”; the “weight gain through the sorption cycle” value is “approximately 10%”; the “weight loss upon desorption” value came to 7%; the “material recovered” value is given as “remained amorphous”.
